Source: patent US20140187556A1, “ANTI-AMYLOID COMPOUNDS AND METHODS” (Treventis Corporation, priority 2011, published 2014)

Assays:
[1] = In vivo brain/plasma ratio determination in CD-1 mice; settings: for Mean brain/plasma ratio: 2 hours; for maximum brain/plasma ratio: day 5, once daily i.p. dosing
Description: Five groups of CD-1 mice (both sexes; individual weights 20 to 40 g) were dosed intraperitoneally with different doses of TRV 1067 (0, 3, 10, 30, and 100 mg/kg). DMSO (100%) was used as a vehicle. Animals had ad libitum access to rodent chow. Some animals were euthanized 2 hours after dosing on Day 1 and brains were harvested. Blood (0.15 mL) was collected 15 minutes after dosing and at sacrifice. The remaining animals were dosed once daily for 5 consecutive days. Blood samples were collected 15 minutes after dosing on Day 1. On Day 5, blood samples were collected 15 minutes and 2 hours after dosing and brains were harvested.
Standards were prepared in CD-1 mouse plasma containing sodium heparin as an anticoagulant and CD-1 mouse brain homogenate. An eight-point calibration curve was prepared at concentrations of 1000, 500, 100, 50, 10, 5, 1, and 0.5 ng/mL by serial dilution. Standard samples were treated identically to the study samples. Brain samples were homogenized with a Virsonic 100 ultrasonic homogenizer. Each brain sample was first weighed, and then an appropriate volume of 20:80 methanol:water was added to make a 4 mL/1 g sample. Samples were then homogenized on ice, and stored frozen until analysis. Plasma and brain homogenate samples were extracted via acetonitrile precipitation on a Tomtec Quadra 96-Model 320 liquid handling system in a 96-well plate format. A Perkin Elmer series 200 micropumps and LEAP Autosampler high-performance liquid chromatograph (HPLC) was used with a 0.2% formic acid/water/acetonitrile solvent system for separation purposes. The compound was quantitated using a PE Sciex API3000 mass spectrometer connected to the HPLC; negative polarity was used, with TRV 1067 analyzed using ion settings of 347.1 mass/charge ratio for the precursor and 212.1 for the product ions, respectively. Warfarin was used in negative polarity (307.1 precursor, 250.0 product) as an internal standard.

[2] = tested on: MDR1-MDCK cell monolayers; experiment: Blood-brain barrier penetration potential using MDR1-MDCK cell monolayers; type: in vitro ADME; settings: 5 μM, 120 min
Source text: (§1) This assay is used to determine the blood-brain barrier (BBB) penetration potential of a test compound using MDR1-MDCK cell monolayers. Further details on this method may be found in Taub M E, et al., Functional assessment of multiple Pglycoprotein (P-gp) probe substrates: Influence of cell line and modulator concentration on P-gp activity. Drug Metab Dispos. 2005 November; 33(11): 1679-87 and Wang Q, et al., Evaluation of the MDR-MDCK cell line as a permeability screen for the blood-brain barrier. Int J. Pharm. 2005 Jan. 20; 288(2):349-59; each of which is hereby incorporated by reference. Test compound was formulated in 300 μL of DMSO at 10 mM and diluted to 5 μM in HBSSg with maximum DMSO concentration not greater than 1%. Confluent monolayers of MDR1-MDCK cells, 7 to 11 days old, were used. A receiver well, having apical and basolateral sides at pH 7.4, was used with 1% BSA in modified Hanks buffer (HBSSg). Two monolayers were dosed with test compound in each direction (N=2). Apical side dosing was used for A-B assessment and basolateral side was used for B-A assessment; taken together, this information provides a bidirectional permeability potential. Apical and basolateral sides were sampled at 120 minutes and concentrations of test compound were determined using an LC-MS/MS method with a minimum 4 point calibration curve. Apparent permeability (Papp) in both directions (A-B and B-A) was calculated, as was the efflux ratio (Papp B-A)/(Papp A-B).

Aβ40 = target: T1, Aβ40 (Homo sapiens, UniProt P05067); experiment: Thioflavin T (ThT) Aβ aggregation assay; type: biochemical; settings: 20 μM Aβ40, 37 degrees C
T1 construct: pre-treated Aβ40 (40 μM in 20 mM Tris, pH 7.4)
T1 sequence (P05067 672-711 limits assumed): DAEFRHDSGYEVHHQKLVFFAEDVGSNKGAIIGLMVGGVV
Description: Aβ40 (1.0 mg) was pre-treated in a 1.5 mL microfuge tube with HFIP (1 mL) and sonicated for 20 min to disassemble any pre-formed Aβ aggregates. The HFIP was removed with a stream of argon and the Aβ dissolved in Tris base (5.8 mL, 20 mM, pH ˜10). The pH was adjusted to 7.4 with concentrated HCl (−10 μL) and the solution filtered using a syringe filter (0.2 μm) before being used.
The kinetic ThT assay for Aβ aggregation is similar to that of Chalifour et al (Chalifour et al, 2003, J. Biol. Chem. 278:34874-81). Briefly, pre-treated Aβ40 (40 μM in 20 mM Tris, pH 7.4), was diluted with an equal volume of 8 μM ThT in Tris (20 mM, pH 7.4, 300 mM NaCl). Aliquots of Aβ/ThT (200 μL) were added to wells of a black polystyrene 96-well plate, followed by 2 μL of a compound in DMSO (variable concentration), or DMSO alone (controls). Incubations were performed in triplicate and were taken to contain 20 μM Aβ, various concentration of compound in 20 mM Tris, pH 7.4, 150 mM NaCl, 1% DMSO. Plates were covered with clear polystyrene lids and incubated at 37 degrees C. in a Tecan Genios microplate reader. Fluorescence readings (λex=450 nm, λem=480 nm) were taken every 15 min., after first shaking at high intensity for 15 s and allowing to settle for 10 s before each reading. Active compounds attenuated the increase in fluorescence over time that occurred in controls.

Tau441 = Tau441 (Homo sapiens, UniProt P10636); experiment: Thioflavin S (ThS) tau aggregation assay; type: biochemical; settings: FIG. 1; for inhibition at 20 µM: 20 μM compound; for IC50: read-out: tau aggregation IC50 (suggested by inhibition at 20 μM)
Chain of Tau441 (P10636 1-441 isoform P10636-8): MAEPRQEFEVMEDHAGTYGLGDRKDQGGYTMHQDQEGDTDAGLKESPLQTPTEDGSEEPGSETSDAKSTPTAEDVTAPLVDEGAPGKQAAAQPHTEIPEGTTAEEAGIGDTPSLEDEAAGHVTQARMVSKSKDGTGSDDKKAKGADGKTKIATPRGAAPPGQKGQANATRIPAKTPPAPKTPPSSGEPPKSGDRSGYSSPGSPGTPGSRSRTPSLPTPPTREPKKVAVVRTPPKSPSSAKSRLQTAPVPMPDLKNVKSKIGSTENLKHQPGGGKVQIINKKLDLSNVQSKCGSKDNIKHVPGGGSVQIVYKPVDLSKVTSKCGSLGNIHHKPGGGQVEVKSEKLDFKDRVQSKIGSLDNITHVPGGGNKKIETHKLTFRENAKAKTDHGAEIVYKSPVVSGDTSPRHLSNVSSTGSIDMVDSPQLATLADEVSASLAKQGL
Description: Analogous to the method of Example 1, the ability of compounds to inhibit the aggregation of tau was performed by substituting […] with tau and Thioflavin T with Thioflavin S.

alpha-synuclein = alpha-synuclein (Homo sapiens, UniProt P37840); experiment: alpha-synuclein aggregation assay (ThT, analogous to Example 1); type: biochemical; settings: 10 μM compound
Description: Analogous to the method of Example 1, the ability of compounds to inhibit the aggregation of alpha-synuclein was performed by substituting Aβ with alpha-synuclein.

[3] = Blood-brain barrier penetration potential using MDR1-MDCK cell monolayers; type: in vitro ADME; settings: dog
Source text: as §1

[4] = Metabolic stability in mouse liver microsomes; type: in vitro ADME; settings: 1 μM compound, 0.5 mg/mL microsomal protein, 1 mM NADPH
Description: This assay is used to determine the percent remaining and intrinsic clearance of a test compound incubated with pooled mouse liver microsomes in the presence of NADPH. Further details on this method may be found in Jeffrey P, et al., Utility of metabolic stability screening: comparison of in vitro and in vivo clearance. enobiotica. 2001 August-September; 31(8-9):591-8 and Lin J H, et al., Role of pharmacokinetics and metabolism in drug discovery and development. Pharmacol Rev. 1997; 49(4):403-49; each of which is hereby incorporated by reference. Test compound was formulated in 300 μL of DMSO at 10 mM and was diluted to 1 μM with final concentration of organic solvent <0.25% for the experiment. Pooled liver microsomes were prepared from male mice, with 1 mM NADPH. Test compound was incubated at 37 degrees Celsius in buffer containing 0.5 mg/mL microsomal protein; the reaction was initiated by adding cofactors and sampled at 0, 10, 20, 30, and 60 minutes. A positive control (5 μM testosterone) was incubated and initiated in parallel for quality control. Samples were analyzed using an LTQ-Orbitrap XL mass spectrometer; HRMS was used to determine the peak area response ratio (peak area corresponding to test compound or control divided by that of an analytical internal standard) without running a standard curve.
Results were reported for selected compounds in the table of Example 1, as % test compound remaining after 60 minutes. Compounds which have less than about 5% remaining are not considered to be metabolically stable in mouse liver microsomes, while compounds with more than about 5% remaining are considered to be metabolically stable in mouse liver microsomes.

Question: With `O=C(O)c1cccc(-c2ccc([N+](=O)[O-])c(NCc3ccccc3)c2)c1` [TRV 1067, 3′-(benzylamino)-4′-nitrophenyl-3-carboxylic acid] as the compound, how does the “blood-brain barrier crossing in vivo” value ([1]; CD-1 mice, 3-100 mg/kg i.p.) read?
Answer: did not appreciably cross the blood-brain barrier

Question: And the Mean brain/plasma ratio ([1]; female CD-1 mice, Day 1, 3 mg/kg intraperitoneally)?
Answer: too low to determine

Question: And the Mean brain/plasma ratio ([1]; female CD-1 mice, Day 1, 100 mg/kg intraperitoneally)?
Answer: 0.051

Question: What about the maximum brain/plasma ratio ([1]; female CD-1 mice) of the same compound?
Answer: 0.067

Question: What about the Mean brain/plasma ratio ([1]; male CD-1 mice, Day 1, 3 mg/kg intraperitoneally) of the same compound?
Answer: too low to determine

Question: And the Mean brain/plasma ratio ([1]; male CD-1 mice, Day 1, 100 mg/kg intraperitoneally)?
Answer: 0.168

Question: And the maximum brain/plasma ratio ([1]; male CD-1 mice)?
Answer: 0.256

Question: What about the “Efflux ratio (Papp B-A)/(Papp A-B)” value [2] of the same compound?
Answer: 1.8

Question: And the “Papp A-B × 10^−6 cm/s” value ([2]; apical dosing, pH 7.4)?
Answer: 42.1 10^−6 cm/s

Question: What about the “Papp B-A × 10^−6 cm/s” value ([2]; basolateral dosing, pH 7.4) of the same compound?
Answer: 74.9 10^−6 cm/s

Question: With `O=C(c1ccccc1)N1CCN(c2ccc(C(F)(F)F)c(N3CCCC3)c2)CC1` [TRV 1158, phenyl(4-(3-(pyrrolidin-1-yl)-4-(trifluoromethyl)phenyl)piperazin-1-yl)methanone] as the compound, how does the IC50 (Aβ40) read?
Answer: 42.02 ± 0.12 µM

Question: What about the inhibition at 20 µM (Tau441) of the same compound?
Answer: ~20%

Question: And the IC50 (Tau441)?
Answer: > 20 µM

Question: Which “inhibition of alpha-synuclein aggregation” value (alpha-synuclein) does the source give for `O=[N+]([O-])c1ccc(-c2cccc(-c3nnn[nH]3)c2)cc1NCc1ccccc1` [TRV 1120, N-benzyl-4-nitro-3′-(1H-tetrazol-5-yl)-[1,1′-biphenyl]-3-amine] here?
Answer: inhibit alpha-synuclein aggregation at 10 μM

Question: What about the IC50 (Aβ40) of the same compound?
Answer: 1.34 ± 0.22 µM

Question: What about the Papp A→B at 120 min, 5 µM ([3]; MDCK-MDR1, apical dosing, pH 7.4, read-out: Papp A-B × 10^−6 cm/s) of the same compound?
Answer: 38.3 ×10⁻⁶ cm/s

Question: What about the Papp B→A at 120 min, 5 µM ([3]; MDCK-MDR1, basolateral dosing, pH 7.4, read-out: Papp B-A × 10^−6 cm/s) of the same compound?
Answer: 47.4 ×10⁻⁶ cm/s

Question: What about the efflux ratio at 120 min, 5 µM ([3]; MDCK-MDR1, pH 7.4, read-out: Efflux ratio (Papp B-A)/(Papp A-B)) of the same compound?
Answer: 1.2

Question: And the “Stability in mouse liver microsomes (% test compound remaining after 60 min)” value [4]?
Answer: 60%

Question: For `O=C(c1ccccc1)N1CCN(c2ccc(F)c(Nc3ccccc3)c2)CC1` [TRV 1095, (4-(4-fluoro-3-(phenylamino)phenyl)piperazin-1-yl)(phenyl)methanone], which IC50 (Aβ40) is on record?
Answer: 15.9 ± 7.8 µM

Question: What about the inhibition at 20 µM (Tau441) of the same compound?
Answer: ~20%

Question: What about the IC50 (Tau441) of the same compound?
Answer: > 20 µM

Question: What about the “Stability in mouse liver microsomes (% test compound remaining after 60 min)” value [4] of the same compound?
Answer: <1.0%
